Measured values as given in US12383524B2, “Therapeutic compositions of undecylenic acid and arginine” (Wintermute Biomedical, Inc., priority 2018, dated 2025).

Legend:
[1] = test system: methicillin-resistant Staphylococcus aureus (MRSA); assay: In vitro bactericidal assay against MRSA isolates (viable CFU/mL after treatment); settings: average of three MRSA isolates, 24 hours, varying CA concentration
Description: Note that efficacy is reported in terms of the viable bacterial concentration (in CFU/mL) remaining after 24 hours of treatment with the drug product (in compliance with CLSI guidelines).
In this example, bacteria (MRSA isolates) are put onto fresh plates and allowed to grow for 30 hours. A suspension inoculum is made from the plates (e.g., a 1 McFarland solution in sterile water), from which the turbidity may be optically read. A standard inoculum may then be cultured in media and 100 μL of that solution combined with 100 μL of drug product and grown at various dilutions for 16-20 hrs. Duplicates may then be examined (e.g., following pelleting at 7,000 RPM for 15 min, resuspended in PBS and serial dilutions plated and grown for 24 hrs.). Duplicate plates at multiple dilutions may then be imaged and colonies counted.
For example, in each of these examples in FIG. 20, the fatty acid to amino acid in the compositions was at a ratio of about 1:0.76 (fatty acid:amino acid) by weight when diluted and used to treat MRSA. GS-1, GS-2 and GS-3 all had fatty acid:amino acid aqueous mixtures with approximately 32% w/w of total active pharmaceutical ingredients (APIs), which were diluted at 1:128 in water, resulting in a concentration of about 0.25% w/w total APIs. […]

[2] = test system: bacteria; assay: Variation of the amino acid combined with UCA, bactericidal effect; assay type: cell-based
Excerpt: Thus in some variations, the amino acid may be limited to a charged (and particularly the positively charged) amino acids, such as amino acid having an electrically charged basic side chain.

Structure (SMILES): CCCCCCCCCCCCCCCCO [CA, cetyl alcohol]
- effect of CA on efficacy of the UCA and LARG composition [1]: clear inhibitory effect

Structure (SMILES): N=C(N)NCCC[C@@H](N)C(=O)O [D-Arginine]
- bactericidal effect when used as the amino acid with the fatty acid [2]: ineffective
